Measured values taken from patent US20090137572A1, “2-substituted-4-heteroaryl-pyrimidines useful for the treatment of proliferative disorders” (priority 2004, published 2009).

Tests used:
Type in all cases: biochemical
[1] = target: T1, protein kinases (panel of Table 4) (Homo sapiens, UniProt P49840); experiment: Kinase selectivity profile, kinase inhibition IC50 (Table 4), ATP 100 μM; settings: kinase GSK3a
T1 construct: other: kinase GSK3a; ATP 100 μM
Method: (§1) For the assays shown in Table 3, the kinases were assayed at the following ATP concentrations: SAPK4, PKBΔph, GSK3b, SAPK3, CK2, MKK1, PIM2, IKKB, ERK8, and PRK2 at 5 μM; JNK, PRAK, ROCK-II, SAPK2b, CDK2, CHK1, MSK1, CSK, P70S6K, PKA, CK1, MAPKAP-K2, SGK, PKCa, PDK1, NEK 7, and MAPKAP-K3 at 20 μM; SAPK2a, LCK, AMPK, MAPK2, DYRK1a, MAPKAP-K1a, NEK-6, NEK2a, PBK, CAMK-1, SRPK-1, JNK3, MNK2, RSK2, MNK1, PKBB, and SmMLCK at 50 μM. For the assays in Table 4 the ATP concentration was 100 μM throughout.

[2] = target: T2, protein kinases (panel of Table 4) (Homo sapiens, UniProt P06239); experiment: as above; settings: kinase Lck
T2 construct: other: kinase Lck; ATP 100 μM
T2 sequence (P06239 whole entry): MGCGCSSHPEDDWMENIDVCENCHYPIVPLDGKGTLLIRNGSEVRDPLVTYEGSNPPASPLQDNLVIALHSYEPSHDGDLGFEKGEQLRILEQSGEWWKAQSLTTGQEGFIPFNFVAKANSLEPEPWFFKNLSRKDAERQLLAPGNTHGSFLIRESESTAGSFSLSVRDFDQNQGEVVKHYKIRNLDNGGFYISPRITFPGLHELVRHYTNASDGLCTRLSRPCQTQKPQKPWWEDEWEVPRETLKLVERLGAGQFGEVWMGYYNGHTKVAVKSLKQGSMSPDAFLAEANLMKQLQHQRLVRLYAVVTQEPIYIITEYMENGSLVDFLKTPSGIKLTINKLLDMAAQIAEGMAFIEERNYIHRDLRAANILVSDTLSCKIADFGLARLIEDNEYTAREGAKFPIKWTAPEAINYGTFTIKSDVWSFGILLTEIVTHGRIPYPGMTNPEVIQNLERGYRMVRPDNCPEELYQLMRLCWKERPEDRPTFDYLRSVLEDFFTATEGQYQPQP
Method: as §1

[3] = target: T3, protein kinases (panel of Table 4); experiment: as above; settings: kinase PKC
T3 construct: other: kinase PKC; ATP 100 μM
Method: as §1

[4] = target: T4, protein kinases (panel of Table 4) (Homo sapiens, UniProt P50750); experiment: as above; settings: kinase CDK9T1
T4 construct: other: kinase CDK9T1; ATP 100 μM
T4 sequence (P50750 whole entry): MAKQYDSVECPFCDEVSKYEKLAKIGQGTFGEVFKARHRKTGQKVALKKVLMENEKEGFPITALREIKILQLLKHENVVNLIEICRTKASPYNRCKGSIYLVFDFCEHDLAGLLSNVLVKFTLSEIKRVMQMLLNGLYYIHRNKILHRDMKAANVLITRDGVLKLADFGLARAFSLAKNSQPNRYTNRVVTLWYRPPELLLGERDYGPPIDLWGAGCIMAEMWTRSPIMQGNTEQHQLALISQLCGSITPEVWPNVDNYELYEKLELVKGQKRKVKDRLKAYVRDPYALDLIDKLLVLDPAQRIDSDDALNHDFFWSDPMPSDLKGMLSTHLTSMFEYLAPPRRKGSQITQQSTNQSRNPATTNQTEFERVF
Method: as §1

[5] = target: T5, protein kinases (panel of Table 4) (Homo sapiens, UniProt P09619); experiment: as above; settings: kinase PDGFb
T5 construct: other: kinase PDGFb; ATP 100 μM
T5 sequence (P09619 whole entry): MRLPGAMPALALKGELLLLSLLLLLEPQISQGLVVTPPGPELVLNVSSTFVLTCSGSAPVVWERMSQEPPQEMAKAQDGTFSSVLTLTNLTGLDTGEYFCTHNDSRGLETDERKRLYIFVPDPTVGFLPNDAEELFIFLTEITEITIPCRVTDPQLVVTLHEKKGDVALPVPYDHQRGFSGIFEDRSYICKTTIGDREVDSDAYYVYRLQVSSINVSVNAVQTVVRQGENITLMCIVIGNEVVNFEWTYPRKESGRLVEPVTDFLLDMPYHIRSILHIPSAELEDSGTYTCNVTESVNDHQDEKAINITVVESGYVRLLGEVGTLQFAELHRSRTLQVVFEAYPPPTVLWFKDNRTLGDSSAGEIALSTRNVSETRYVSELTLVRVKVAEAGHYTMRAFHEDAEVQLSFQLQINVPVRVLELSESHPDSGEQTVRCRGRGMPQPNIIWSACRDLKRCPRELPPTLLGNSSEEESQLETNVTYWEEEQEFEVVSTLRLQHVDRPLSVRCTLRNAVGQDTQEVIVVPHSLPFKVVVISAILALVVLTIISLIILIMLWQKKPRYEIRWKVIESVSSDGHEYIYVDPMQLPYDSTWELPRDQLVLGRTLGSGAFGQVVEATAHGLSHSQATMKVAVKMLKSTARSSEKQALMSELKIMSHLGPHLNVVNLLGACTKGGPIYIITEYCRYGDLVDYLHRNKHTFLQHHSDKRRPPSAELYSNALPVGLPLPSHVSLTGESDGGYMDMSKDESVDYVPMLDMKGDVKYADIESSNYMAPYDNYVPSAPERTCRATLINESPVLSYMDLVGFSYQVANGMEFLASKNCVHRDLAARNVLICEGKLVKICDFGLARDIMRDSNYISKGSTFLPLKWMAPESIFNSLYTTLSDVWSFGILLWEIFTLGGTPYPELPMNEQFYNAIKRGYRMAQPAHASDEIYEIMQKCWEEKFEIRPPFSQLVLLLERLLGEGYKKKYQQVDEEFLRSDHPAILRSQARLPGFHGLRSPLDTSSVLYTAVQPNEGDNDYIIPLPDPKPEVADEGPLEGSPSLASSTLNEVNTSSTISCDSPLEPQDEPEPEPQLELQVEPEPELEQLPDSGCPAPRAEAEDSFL
Method: as §1

[6] = target: T6, protein kinases (panel of Table 4) (Homo sapiens, UniProt P53350); experiment: as above; settings: kinase Plk1
T6 construct: other: kinase Plk1; ATP 100 μM
T6 sequence (P53350 whole entry): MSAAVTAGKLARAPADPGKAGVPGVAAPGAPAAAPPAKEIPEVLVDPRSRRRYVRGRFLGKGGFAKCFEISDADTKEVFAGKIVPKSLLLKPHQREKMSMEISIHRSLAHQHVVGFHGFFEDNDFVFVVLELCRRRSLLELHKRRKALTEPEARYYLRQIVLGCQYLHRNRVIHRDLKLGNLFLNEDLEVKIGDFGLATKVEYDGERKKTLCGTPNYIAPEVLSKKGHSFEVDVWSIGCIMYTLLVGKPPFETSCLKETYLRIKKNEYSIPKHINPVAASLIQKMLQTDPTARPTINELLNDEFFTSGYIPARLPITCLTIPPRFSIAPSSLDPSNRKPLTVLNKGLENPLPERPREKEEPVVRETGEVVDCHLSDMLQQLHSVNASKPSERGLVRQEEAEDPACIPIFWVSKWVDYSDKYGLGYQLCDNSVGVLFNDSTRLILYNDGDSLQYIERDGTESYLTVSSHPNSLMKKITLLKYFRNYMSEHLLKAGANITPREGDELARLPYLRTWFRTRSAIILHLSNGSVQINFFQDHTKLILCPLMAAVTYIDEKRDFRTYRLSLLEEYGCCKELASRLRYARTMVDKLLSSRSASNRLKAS
Method: as §1

[7] = target: T7, protein kinases (panel of Table 4) (Homo sapiens, UniProt P00519); experiment: as above; settings: kinase Ab1
T7 construct: other: kinase Ab1; ATP 100 μM
T7 sequence (P00519 whole entry): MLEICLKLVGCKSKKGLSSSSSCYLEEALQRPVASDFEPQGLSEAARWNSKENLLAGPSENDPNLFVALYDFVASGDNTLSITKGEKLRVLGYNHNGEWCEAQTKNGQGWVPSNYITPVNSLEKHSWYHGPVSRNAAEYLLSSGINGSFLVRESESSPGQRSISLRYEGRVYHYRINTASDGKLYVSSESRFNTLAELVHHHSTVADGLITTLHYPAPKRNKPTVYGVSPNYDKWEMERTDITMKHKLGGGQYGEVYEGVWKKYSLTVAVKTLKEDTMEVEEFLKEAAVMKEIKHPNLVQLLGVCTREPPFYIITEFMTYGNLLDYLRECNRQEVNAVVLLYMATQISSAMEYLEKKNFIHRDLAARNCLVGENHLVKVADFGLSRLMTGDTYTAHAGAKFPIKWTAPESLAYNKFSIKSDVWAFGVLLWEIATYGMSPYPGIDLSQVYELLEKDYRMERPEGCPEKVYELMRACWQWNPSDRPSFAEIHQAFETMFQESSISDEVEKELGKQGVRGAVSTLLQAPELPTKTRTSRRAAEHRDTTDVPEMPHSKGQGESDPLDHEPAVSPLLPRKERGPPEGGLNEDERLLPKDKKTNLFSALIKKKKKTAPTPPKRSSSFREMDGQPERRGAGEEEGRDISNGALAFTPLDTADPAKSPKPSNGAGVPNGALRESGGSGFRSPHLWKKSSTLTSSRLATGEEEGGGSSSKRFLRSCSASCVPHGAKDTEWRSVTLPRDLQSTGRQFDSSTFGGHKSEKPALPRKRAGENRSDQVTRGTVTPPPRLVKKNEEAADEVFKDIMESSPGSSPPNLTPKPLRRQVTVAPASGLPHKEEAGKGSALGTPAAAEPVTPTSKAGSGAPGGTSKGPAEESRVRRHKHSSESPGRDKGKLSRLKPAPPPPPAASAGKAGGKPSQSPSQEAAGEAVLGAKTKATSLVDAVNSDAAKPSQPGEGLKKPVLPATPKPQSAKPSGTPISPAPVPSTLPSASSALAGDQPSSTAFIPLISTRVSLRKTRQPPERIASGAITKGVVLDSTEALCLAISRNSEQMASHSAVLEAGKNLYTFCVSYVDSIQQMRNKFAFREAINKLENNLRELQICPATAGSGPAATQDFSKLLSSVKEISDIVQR
Method: as §1

[8] = target: T8, protein kinases (panel of Table 4) (Homo sapiens, UniProt P49841); experiment: as above; settings: kinase GSK3b
T8 construct: other: kinase GSK3b; ATP 100 μM
Method: as §1

[9] = target: T9, protein kinases (panel of Table 4) (Homo sapiens, UniProt P06493); experiment: as above; settings: kinase CDK1B
T9 construct: other: kinase CDK1B; ATP 100 μM
T9 sequence (P06493 whole entry): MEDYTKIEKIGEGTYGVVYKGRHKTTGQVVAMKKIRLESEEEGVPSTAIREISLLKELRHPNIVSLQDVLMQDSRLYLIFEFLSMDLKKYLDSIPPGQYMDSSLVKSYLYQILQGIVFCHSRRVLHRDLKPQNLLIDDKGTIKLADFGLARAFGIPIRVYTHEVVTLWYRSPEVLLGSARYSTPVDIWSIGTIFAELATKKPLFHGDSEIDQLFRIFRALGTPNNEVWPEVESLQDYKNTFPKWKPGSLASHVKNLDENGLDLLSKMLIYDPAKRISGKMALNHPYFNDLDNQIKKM
Method: as §1

[10] = target: T10, protein kinases (panel of Table 4) (Homo sapiens, UniProt P50613); experiment: as above; settings: kinase CDK7H
T10 construct: other: kinase CDK7H; ATP 100 μM
T10 sequence (P50613 whole entry): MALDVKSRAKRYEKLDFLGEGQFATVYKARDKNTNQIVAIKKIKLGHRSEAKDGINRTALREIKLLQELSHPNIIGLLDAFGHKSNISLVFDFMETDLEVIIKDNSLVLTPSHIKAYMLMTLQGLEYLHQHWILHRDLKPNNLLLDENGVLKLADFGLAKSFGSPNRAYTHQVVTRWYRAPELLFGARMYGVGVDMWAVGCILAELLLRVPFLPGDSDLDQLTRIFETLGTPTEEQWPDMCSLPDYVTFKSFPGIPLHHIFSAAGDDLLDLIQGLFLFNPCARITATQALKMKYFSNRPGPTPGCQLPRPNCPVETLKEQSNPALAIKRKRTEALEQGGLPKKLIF
Method: as §1

[11] = target: T11, Flt3 (FMS-like tyrosine kinase-3) (Homo sapiens, UniProt P36888); experiment: Kinase assay (radioactive phosphate incorporation), Flt3; settings: pIC50 is -log(IC50, M), read-out: Kinase Inhibition pIC50 Flt3 (converted)
T11 sequence (P36888 27-993): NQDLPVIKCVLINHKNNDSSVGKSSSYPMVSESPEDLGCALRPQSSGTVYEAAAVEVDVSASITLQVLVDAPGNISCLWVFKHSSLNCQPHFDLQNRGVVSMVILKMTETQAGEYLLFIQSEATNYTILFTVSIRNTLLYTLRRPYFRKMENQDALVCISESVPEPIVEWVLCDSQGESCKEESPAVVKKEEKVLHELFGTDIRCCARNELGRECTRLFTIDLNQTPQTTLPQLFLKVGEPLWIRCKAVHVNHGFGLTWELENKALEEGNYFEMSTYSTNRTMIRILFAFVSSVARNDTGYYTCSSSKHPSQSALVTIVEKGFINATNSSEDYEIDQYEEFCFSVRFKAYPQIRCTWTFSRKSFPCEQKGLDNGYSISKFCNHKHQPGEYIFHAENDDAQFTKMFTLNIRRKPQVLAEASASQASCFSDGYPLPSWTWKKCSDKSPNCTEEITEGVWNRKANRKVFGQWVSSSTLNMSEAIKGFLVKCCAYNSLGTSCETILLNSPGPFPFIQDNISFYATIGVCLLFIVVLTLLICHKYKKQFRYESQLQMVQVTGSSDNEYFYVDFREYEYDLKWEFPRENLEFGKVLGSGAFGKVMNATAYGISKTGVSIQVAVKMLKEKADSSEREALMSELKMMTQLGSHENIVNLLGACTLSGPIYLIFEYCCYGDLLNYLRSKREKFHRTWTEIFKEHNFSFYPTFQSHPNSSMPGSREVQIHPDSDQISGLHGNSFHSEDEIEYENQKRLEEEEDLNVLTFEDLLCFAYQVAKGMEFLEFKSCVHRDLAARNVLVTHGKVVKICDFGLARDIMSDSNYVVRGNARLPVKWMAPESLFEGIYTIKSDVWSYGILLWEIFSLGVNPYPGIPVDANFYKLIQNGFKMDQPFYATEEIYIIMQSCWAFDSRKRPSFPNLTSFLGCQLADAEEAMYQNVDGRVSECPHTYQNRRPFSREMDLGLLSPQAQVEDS
Summary of the method: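 Inhibition was measured as transfer of radiolabelled phosphate from [γ-32P]-ATP (100 μM ATP, 15 mM MgCl2) onto polypeptide substrates by recombinant kinases or kinase complexes. Reactions ran at 30° C in MOPS/β-glycerophosphate buffer, pH 7.4, were stopped on ice and filtered before scintillation counting.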

T1 sequence (P49840 whole entry): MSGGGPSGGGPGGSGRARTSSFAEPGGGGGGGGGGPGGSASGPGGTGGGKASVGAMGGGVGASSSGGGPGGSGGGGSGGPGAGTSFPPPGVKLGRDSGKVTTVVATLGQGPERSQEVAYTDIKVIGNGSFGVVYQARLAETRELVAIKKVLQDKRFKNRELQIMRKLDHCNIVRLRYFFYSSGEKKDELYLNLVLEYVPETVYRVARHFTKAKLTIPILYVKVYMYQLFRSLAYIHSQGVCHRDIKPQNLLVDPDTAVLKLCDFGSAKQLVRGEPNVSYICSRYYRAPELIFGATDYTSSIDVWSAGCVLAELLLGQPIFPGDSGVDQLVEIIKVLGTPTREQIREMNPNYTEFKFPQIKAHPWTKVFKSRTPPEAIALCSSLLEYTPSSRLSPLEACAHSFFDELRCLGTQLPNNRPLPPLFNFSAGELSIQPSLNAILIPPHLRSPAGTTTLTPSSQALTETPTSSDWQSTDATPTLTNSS

Compound	IC50 [1]	IC50 [2]	IC50 [3]	IC50 [4]	IC50 [5]	IC50 [6]	IC50 [7]	IC50 [8]	IC50 [9]	IC50 [10]	IC50 [11]
CNc1nc(C)c(-c2ccnc(Nc3ccc(C)c(S(=O)(=O)N4CCOCC4)c3)n2)s1 [Compound 37, [4-(4-Methyl-2-methylamino-thiazol-5-yl)-pyrimidin-2-yl]-[4-methyl-3-(morpholine-4-sulfonyl)-phenyl]-amine]	650 nM	4900 nM	6400 nM	22 nM	6600 nM	> 10000 nM	3800 nM	1800 nM	> 10000 nM	5900 nM	158 nM
Cc1ccc(Nc2nccc(-c3sc(N)nc3C)n2)cc1S(=O)(=O)N1CCOCC1 [Compound 38, [4-(2-Amino-4-methyl-thiazol-5-yl)-pyrimidin-2-yl]-[4-methyl-3-(morpholine-4-sulfonyl)-phenyl]-amine]	960 nM	2600 nM	2500 nM	28 nM	4800 nM	> 10000 nM	2300 nM	2200 nM	> 10000 nM	650 nM	200 nM
CNc1nc(C)c(-c2ccnc(Nc3cccc(S(C)(=O)=O)c3)n2)s1 [Compound 27, (3-Methanesulfonyl-phenyl)-[4-(4-methyl-2-methylamino-thiazol-5-yl)-pyrimidin-2-yl]-amine]	12 nM	500 nM	> 10000 nM	1 nM	520 nM	> 10000 nM	2100 nM	94 nM	260 nM	200 nM	63.1 nM
COCCNS(=O)(=O)c1cccc(Nc2nccc(-c3sc(N)nc3C)n2)c1 [Compound 55, 3-[4-(2-Amino-4-methyl-thiazol-5-yl)-pyrimidin-2-ylamino]-N-(2-methoxy-ethyl)-benzenesulfonamide]	290 nM	1800 nM	5800 nM	30 nM	1900 nM	> 10000 nM	2100 nM	450 nM	2900 nM	620 nM	200 nM
CNc1nc(C)c(-c2ccnc(Nc3cccc(S(N)(=O)=O)c3)n2)s1 [Compound 19, 3-[4-(4-Methyl-2-methylamino-thiazol-5-yl)-pyrimidin-2-ylamino]-benzenesulfonamide]	160 nM	490 nM	5500 nM	3 nM	490 nM	> 10000 nM	370 nM	170 nM	200 nM	54 nM	31.6 nM
CCNc1nc(C)c(-c2ccnc(Nc3ccc(N4CCNCC4)cc3)n2)s1 [Compound 59, [4-(2-Ethylamino-4-methyl-thiazol-5-yl)-pyrimidin-2-yl]-(4-piperazin-1-yl-phenyl)-amine]	> 10000 nM	120 nM	> 10000 nM	110 nM	210 nM	> 10000 nM	470 nM	> 10000 nM	1200 nM	160 nM	15.8 nM
